Where two headings read alike, the source gives them in different places.
How the values were obtained:
[1] = target: αvβ5 receptors (Homo sapiens, UniProt P06756+P18084); experiment: Solid-phase binding assay, inhibition of [125I]Echistatin binding to αvβ5 receptors
Description: (§1) The receptor binding assays were performed as described (Orlando R. A., et al., J. Biol. Chem. 1991, 266, 19543). αvβ3 and αvβ5 were diluted to 500 ng/ml and 1 μg/ml, respectively, in coating buffer (20 mM Tris, pH 7.4, 150 mM NaCl, 2 mM CaCl2, 1 mM MgCl2, 1 mM MnCl2) and an aliquot of 100 μL was added to a 96-well microtiter plate and incubated overnight at 4° C. The plate was washed once with blocking/binding buffer (50 mM Tris, pH 7.4, 100 mM NaCl, 2 mM CaCl2, 1 mM MgCl2, 1 mM MnCl2, 1% bovine serum albumin), and then was incubated for additional 2 h at RT The plate was rinsed twice with the same buffer and incubated for 3 h at RT with radiolabeled ligand [^125I]Echistatin (Amersham Pharmacia Biotech) 0.05 nM (0.1 nM for αv β5) in the presence of competing inhibitors. After the incubation, the wells were washed and radioactivity was determined with a gamma-counter (Packard). Non-specific binding of ligand was determined with molar excess (200 nM) of cold echistatin.
(§2) The IC50 values reported in Tables 1 and 2 were calculated as the concentrations of compounds required for 50% inhibition of echistatin binding and were estimated by the Prism GraphPad program. The Ki of the competing ligands were calculated according to the Cheng-Prusoff equation (Cheng Y. C., et al., Biochem. Pharmacol., 1973, 22, 3099). Values are the mean±log standard error of triplicate determinations from two independent experiments.

[2] = Stability of the linker-containing conjugate in various assays; settings: various assays conducted
Excerpt: A number of linker-containing peptides as substrates of Cathepsin B have already been described, for example, Phe-Lys, Val-Cit (Dubowchick G. M., et al, Bioconjugate Chem., 2002, 13, 4, 855); Gly-Phe-Leu-Gly (Rejmanova P., et al, Biomaterials, 1985, 6, 1, 45); D-Ala-Phe-Lys (de Groot F. M. H., et al., Mol. Cancer. Ther., 2002, 1, 901). Some of these peptides have been successfully applied when attached to antibodies, which, due to their bulkiness, can shield them from plasma peptidases. However, when we experimented these peptide sequences applied to conjugates containing small ligands, as in the case of oligopeptides, they were immediately cleaved releasing the cytotoxic agent into the circulation, contrary to what described by other authors. […] The above cited paper from Dubowchick deals with cathepsin B-labile dipeptide ligands. The same authors also published four years before another study about the influence of the amino acid at position P2 when Cit amino acid was at P1 position, concluding that the best amino acid in such a position was Val because of hydrophobic interactions within the binding site of cathepsin B (Dubowchick G. M., et al, Bioorg. Med. Chem., 1998, 8, 3341), meanwhile the analogue containing Ala instead of Val contributed to slower noticeably the release of doxorubicin, which was clearly contrary to the objective of the study.

[3] = system: A2780 ovarian carcinoma cells; experiment: Cytotoxicity, sulphorodamine B test (A2780); type: cell-based, human
Description: (§3) To evaluate the effect of the compound on survival cells, the sulphorodamine B test was used. To measure the effects of the compounds on cell growth, PC3 human prostate carcinoma and A2780 human ovarian carcinoma cells were used. A2780 and PC3 tumour cells were grown RPMI 1640 containing 10% fetal bovine serum (GIBCO).
(§4) Tumour cells were seeded in 96-well tissue culture plates at approximately 10% confluence and were allowed to attach and recover for at least 24 h. Varying concentrations of the drugs were then added to each well to calculate their IC50 value (the concentration which inhibits the 50% of cell survival). The plates were incubated at 37° C. for 72 h. At the end of the treatment, the plates were washed by removal of the supernatant and addition of PBS 3 times. 200 μl PBS and 50 μl of cold 80% trichloroacetic acid (TCA) were added. The plates were incubated on ice for at least 1 h. TCA was removed and the plates were washed 3 times by immersion in distilled-water and dried on paper and at 40° C. for 5 min. Then 200 μl of 0.4% sulphorodamine B in 1% acetic acid were added. The plates were incubated at RT for further 30 min. Sulphorodamine B was removed, the plates were washed by immersion in 1% acetic acid 3 times, then they were dried on paper and at 40° C. for 5 min. Then 200 μl Tris 10 mM were added, the plates were kept under stirring for 20 min. The cell survival was determined by means of optical density using a Multiskan spectrofluorimeter at 540 nm. The amount of cells killed was calculated as the percentage decrease in sulphorodamine B binding compared with control cultures.
(§5) The IC50 values were calculated with the “ALLFIT” program.

[4] = system: PC3 prostate carcinoma cells; type: cell-based, human
Description: (§6) A2780 human ovarian carcinoma and PC3 prostate carcinoma cells were grown in medium culture RPMI 1640 containing 10% fetal bovine serum and 50 μg/ml gentamycin sulfate. Cells were maintained in a 37° C. incubator with saturated humidity and an atmosphere of 95% air and 5% CO2. A2780 tumour cell line expresses high levels of αvβ5 integrin, and PC3 low levels of both integrins.
(§7) In 96-well tissue culture plates, 50 μl/well of a solution of vitronectin (5 μg/ml) were added for 2 h at room temperature. The solutions were removed upsetting the plates. 50 μl/well of a solution 1% BSA were added for 1 h at RT. The plates were washed by addition of 100 μl/well of medium culture RPMI 1640 without fetal calf serum (FCS). The washing was repeated twice. The molecules were added at different concentrations in the range between 0.039 μM and 20 μM. The solutions were prepared by dilution 1:2 in medium culture without FCS. Tumour cells in the flasks were washed in saline solution before to be detached by scraper, by the addition of 5 ml of medium culture without FCS and 1% BSA. Tumour cells were counted after resuspension and added at an appropriate cellular density (40000-50000 cells/well). The plates were incubated for 1 h at 37° C. in humidified incubator with 5% CO2. Then, the solutions were removed upsetting the plates and washed once with 200 μl/well of PBS with Ca^2+ e Mg^2+. Tumour cells were fixed with 100 μl of a solution 4% paraformaldehyde in 0.2 M Sorensen phosphate buffer pH 7.2-7.4 for 10 min at RT The plates were upset and 100 μl of 1% Toluidine Blu solution were added for 10 min at RT The plates were washed twice by immersion in bi-distilled water and then dried at 60° C. in thermostat incubator (Kottermann). 100 μl/well of 1% SDS were added. The plates were kept under stirring for 20 min at RT and were then evaluated by Victor 1420 multilabel counter (Wallac) at 600 nm.
(§8) The IC50 value as parameter to measure the inhibiting effect of the molecules on tumour cell adhesion to vitronectin was evaluated using “ALLFIT” computer program.

[5] = system: A2780 ovarian carcinoma cells; type: cell-based, human
Description: as §6, §7, §8

[6] = target: αvβ3 receptor (Homo sapiens, UniProt P05106+P06756); experiment: Solid-phase binding assay, inhibition of [125I]Echistatin binding to αvβ3 receptor
Description: as §1, §2

[7] = system: PC3 prostate carcinoma cells; experiment: Cytotoxicity, sulphorodamine B test (PC3); type: cell-based, human
Description: as §3, §4, §5

[8] = A2780, 72 h of treatment, read-out: IC50 ± SD, cytotoxicity
[9] = PC3, 1 h of treatment, read-out: IC50 ± SD, antiadhesive effect to vitronectin
[10] = A2780, 1 h of treatment, read-out: IC50 ± SD, antiadhesive effect to vitronectin
[11] = PC3, 72 h of treatment, read-out: IC50 ± SD, cytotoxicity
[12] = αvβ5, Cheng-Prusoff equation, read-out: Ki
[13] = αvβ5, [125I]Echistatin 0.1 nM, read-out: IC50 ± log SE, inhibition of [125I]Echistatin binding (converted)
[14] = αvβ3, Cheng-Prusoff equation, read-out: Ki
[15] = αvβ3, [125I]Echistatin 0.05 nM, read-out: IC50 ± log SE, inhibition of [125I]Echistatin binding (converted)

Chain of αvβ5 receptors (P06756 31-889 limits assumed): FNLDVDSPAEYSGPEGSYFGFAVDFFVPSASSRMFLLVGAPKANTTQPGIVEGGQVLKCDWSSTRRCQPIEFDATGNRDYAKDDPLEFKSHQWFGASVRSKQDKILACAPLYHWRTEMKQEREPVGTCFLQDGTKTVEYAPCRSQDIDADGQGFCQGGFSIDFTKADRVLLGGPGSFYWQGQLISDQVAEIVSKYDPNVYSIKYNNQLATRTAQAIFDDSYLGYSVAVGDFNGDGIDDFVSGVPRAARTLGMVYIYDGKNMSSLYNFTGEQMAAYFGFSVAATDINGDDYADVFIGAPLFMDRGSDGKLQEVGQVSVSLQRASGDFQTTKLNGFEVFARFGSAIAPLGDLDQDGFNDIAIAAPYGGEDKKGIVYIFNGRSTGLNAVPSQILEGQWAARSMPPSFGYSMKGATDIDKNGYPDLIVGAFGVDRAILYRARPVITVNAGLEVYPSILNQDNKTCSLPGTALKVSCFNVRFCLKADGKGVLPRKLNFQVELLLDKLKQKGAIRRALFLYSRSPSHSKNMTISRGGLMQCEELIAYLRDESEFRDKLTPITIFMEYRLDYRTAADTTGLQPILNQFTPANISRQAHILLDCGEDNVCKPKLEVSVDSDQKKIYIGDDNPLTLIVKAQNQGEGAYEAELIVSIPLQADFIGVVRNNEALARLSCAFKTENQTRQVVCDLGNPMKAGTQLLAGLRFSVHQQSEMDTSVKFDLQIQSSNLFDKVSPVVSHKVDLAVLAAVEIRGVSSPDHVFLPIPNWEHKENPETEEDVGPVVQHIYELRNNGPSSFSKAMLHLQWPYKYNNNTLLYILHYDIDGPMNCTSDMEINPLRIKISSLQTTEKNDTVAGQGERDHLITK
Chain of αvβ5 receptors (P06756 891-1048 partner limits assumed): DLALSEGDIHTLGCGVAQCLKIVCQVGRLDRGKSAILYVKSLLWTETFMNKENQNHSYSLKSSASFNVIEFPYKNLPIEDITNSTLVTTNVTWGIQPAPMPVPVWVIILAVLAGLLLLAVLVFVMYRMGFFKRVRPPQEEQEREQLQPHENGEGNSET
Chain of αvβ5 receptors (P18084 24-799): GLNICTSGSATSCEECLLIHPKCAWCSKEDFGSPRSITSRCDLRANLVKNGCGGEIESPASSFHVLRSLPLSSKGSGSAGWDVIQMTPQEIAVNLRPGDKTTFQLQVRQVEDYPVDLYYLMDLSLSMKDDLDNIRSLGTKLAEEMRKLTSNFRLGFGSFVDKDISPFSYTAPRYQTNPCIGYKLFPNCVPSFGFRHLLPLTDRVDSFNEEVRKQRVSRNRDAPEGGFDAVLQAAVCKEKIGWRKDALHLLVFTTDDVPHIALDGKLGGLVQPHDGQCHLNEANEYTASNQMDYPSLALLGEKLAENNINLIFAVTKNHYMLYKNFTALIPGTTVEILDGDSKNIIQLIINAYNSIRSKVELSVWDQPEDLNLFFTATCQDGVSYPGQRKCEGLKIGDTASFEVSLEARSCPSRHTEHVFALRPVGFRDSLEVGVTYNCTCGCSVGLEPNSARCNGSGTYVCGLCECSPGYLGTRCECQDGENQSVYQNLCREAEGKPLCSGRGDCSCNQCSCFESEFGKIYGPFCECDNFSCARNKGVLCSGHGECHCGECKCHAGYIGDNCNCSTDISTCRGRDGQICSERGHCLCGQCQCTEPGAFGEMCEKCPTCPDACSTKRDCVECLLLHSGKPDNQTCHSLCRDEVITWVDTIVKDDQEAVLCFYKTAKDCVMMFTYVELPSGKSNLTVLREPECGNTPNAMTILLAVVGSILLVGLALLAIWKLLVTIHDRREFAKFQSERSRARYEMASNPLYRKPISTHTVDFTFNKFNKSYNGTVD
Chain of αvβ3 receptor (P06756 31-889 limits assumed): as the sequence (P06756 31-889 limits assumed) above
Chain of αvβ3 receptor (P06756 891-1048 partner limits assumed): as the sequence (P06756 891-1048 partner limits assumed) above
Chain of αvβ3 receptor (P05106 27-788): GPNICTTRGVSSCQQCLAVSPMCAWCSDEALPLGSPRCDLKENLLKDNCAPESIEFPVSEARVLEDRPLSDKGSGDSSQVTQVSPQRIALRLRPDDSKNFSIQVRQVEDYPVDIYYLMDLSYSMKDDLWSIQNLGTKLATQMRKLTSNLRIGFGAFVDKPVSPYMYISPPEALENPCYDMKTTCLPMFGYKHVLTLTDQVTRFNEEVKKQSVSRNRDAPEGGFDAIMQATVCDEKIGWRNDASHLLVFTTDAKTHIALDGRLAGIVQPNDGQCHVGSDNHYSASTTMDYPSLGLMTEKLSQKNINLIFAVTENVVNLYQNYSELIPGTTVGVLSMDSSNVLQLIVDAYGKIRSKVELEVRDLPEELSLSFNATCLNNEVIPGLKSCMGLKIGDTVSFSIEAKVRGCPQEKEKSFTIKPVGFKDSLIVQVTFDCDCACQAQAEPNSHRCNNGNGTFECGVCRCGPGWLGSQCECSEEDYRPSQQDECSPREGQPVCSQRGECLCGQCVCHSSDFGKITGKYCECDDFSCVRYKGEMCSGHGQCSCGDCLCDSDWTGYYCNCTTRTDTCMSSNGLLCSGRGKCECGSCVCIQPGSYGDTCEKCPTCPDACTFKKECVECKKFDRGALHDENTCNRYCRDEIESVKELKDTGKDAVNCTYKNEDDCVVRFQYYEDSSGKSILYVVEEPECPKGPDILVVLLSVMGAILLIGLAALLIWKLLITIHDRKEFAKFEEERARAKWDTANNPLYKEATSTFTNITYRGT

Compound	IC50 [1] [nM]	Ki [1] [nM]	stability [2]	IC50 [3, 8] [nM]	IC50 [4, 9] [nM]	IC50 [5, 10] [nM]	IC50 [6] [nM]	Ki [6] [nM]	IC50 [7, 11] [nM]	Ki [1, 12] [nM]	IC50 [1, 13] [nM]	IC50 ([3]; human) [nM]	IC50 ([4]; 1 h) [nM]	IC50 ([5]; 1 h) [nM]	Ki [6, 14] [nM]	IC50 [6, 15] [nM]	IC50 ([7]; human) [nM]
CC[C@@]1(O)C(=O)OCc2c1cc1n(c2=O)Cc2c-1nc1ccccc1c2C=NOCCNC(=O)OCc1ccc(NC(=O)[C@H](CCCCN)NC(=O)[C@H](Cc2ccccc2)NC(=O)COCCOCCOCC(=O)NCc2ccc(C[C@@H]3NC(=O)[C@@H](Cc4ccccc4)NC(=O)[C@H](CC(=O)O)NC(=O)CNC(=O)[C@H](CCCNC(=N)N)NC3=O)cc2)cc1 [ST3280]	34.4 ± 0.8	23	highly unstable	8.4 ± 0.6	1800 ± 400	2700 ± 300	9.7 ± 0.06	8.5	200 ± 30	–	–	–	–	–	–	–	–
CC[C@@]1(O)C(=O)OCc2c1cc1n(c2=O)Cc2c-1nc1ccccc1c2C=NOCCNC(=O)OCc1ccc(NC(=O)[C@H](CCCNC(N)=O)NC(=O)[C@H](C)NC(=O)c2cn(CCOCCOCCOCCC(=O)NCc3ccc(C[C@@H]4NC(=O)[C@@H](Cc5ccccc5)NC(=O)[C@H](CC(=O)O)NC(=O)CNC(=O)[C@H](CCCNC(=N)N)NC4=O)cc3)nn2)cc1 [ST4167]	18.4 ± 0.89	13.8	–	30 ± 3	560 ± 70	670 ± 20	11 ± 0.8	8.7	1000 ± 100	–	–	–	–	–	–	–	–
CC[C@@]1(O)C(=O)OCc2c1cc1n(c2=O)Cc2c-1nc1ccccc1c2C=NOCCNC(=O)OCc1ccc(NC(=O)[C@H](CCCNC(N)=O)NC(=O)[C@H](C)NC(=O)c2cn(CCOCCOCCOCCC(=O)N[C@@H](CCCNC(N)=O)C(=O)NCCOCCOCCOCCC(=O)NCc3ccc(C[C@@H]4NC(=O)[C@@H](Cc5ccccc5)NC(=O)[C@H](CC(=O)O)NC(=O)CNC(=O)[C@H](CCCNC(=N)N)NC4=O)cc3)nn2)cc1 [ST4215]	–	–	–	9 ± 0.7	4600 ± 800	1700 ± 200	–	–	2500 ± 700	–	–	–	–	–	–	–	–
CC[C@@]1(O)C(=O)OCc2c1cc1n(c2=O)Cc2c-1nc1ccccc1c2C=NOCCNC(=O)OCc1ccc(NC(=O)[C@H](CCCNC(N)=O)NC(=O)[C@H](C)NC(=O)COCCOCCOCC(=O)NCc2cn(CC(=O)N[C@@H](CCC(=O)NCCOCCOCCOCCC(=O)NCc3ccc(C[C@@H]4NC(=O)[C@@H](Cc5ccc(O)cc5)NC(=O)[C@H](CC(=O)O)NC(=O)CNC(=O)[C@H](CCCNC(=N)N)NC4=O)cc3)C(=O)NCCOCCOCCOCCC(=O)NCc3ccc(C[C@@H]4NC(=O)[C@@H](Cc5ccc(O)cc5)NC(=O)[C@H](CC(=O)O)NC(=O)CNC(=O)[C@H](CCCNC(=N)N)NC4=O)cc3)nn2)cc1 [ST5744TF1]	–	–	–	–	–	–	–	–	–	2.95	3.84 ± 0.12	8 ± 0.5	390 ± 90	450 ± 20	2.4	3.01 ± 0.11	1000 ± 20
Echistatin [reference compound]	–	–	–	–	–	–	–	–	–	0.33	0.29 ± 0.02	–	–	–	0.26	0.28 ± 0.08	–

From US20110160147A1, “NOVEL DUAL TARGETING A[…]” (priority 2008, published 2011)
